Laboratory results published in patent publication US10160747B2, “Compounds and methods for kinase modulation, and indications therefor” (Plexxikon Inc., priority 2016, dated 2018).

Legend:
[1] = tested on: MOLM-14 F691L (endogenous FLT3 ITD and transfected FLT3 F691L); assay: MOLM-14 F691L cell proliferation assay (CellTiter-Glo); assay type: cell-based; conditions: Homo sapiens, MOLM-14, 72 h; 3 d growth, GMean
Summary of the method: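 MOLM-14 cells (FLT3 ITD) carrying D835Y or F691L, 1×10^4 cells/well, eight 1:3 dilutions from 1 μM final, 0.2% DMSO, 3 days at 37 °C, 5% CO2. Viability by CellTiter-Glo luminescence (ATP content); IC50 from concentration-response.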

FLT3-ITD = target: T1, FLT3-ITD (Homo sapiens, UniProt P36888); assay: FLT3-ITD recombinant enzyme kinase assay (AlphaScreen); assay type: biochemical; conditions: 8 pt; read-out: FLT3_ITD 8 pt: IC50
T1 sequence (P36888 1-993): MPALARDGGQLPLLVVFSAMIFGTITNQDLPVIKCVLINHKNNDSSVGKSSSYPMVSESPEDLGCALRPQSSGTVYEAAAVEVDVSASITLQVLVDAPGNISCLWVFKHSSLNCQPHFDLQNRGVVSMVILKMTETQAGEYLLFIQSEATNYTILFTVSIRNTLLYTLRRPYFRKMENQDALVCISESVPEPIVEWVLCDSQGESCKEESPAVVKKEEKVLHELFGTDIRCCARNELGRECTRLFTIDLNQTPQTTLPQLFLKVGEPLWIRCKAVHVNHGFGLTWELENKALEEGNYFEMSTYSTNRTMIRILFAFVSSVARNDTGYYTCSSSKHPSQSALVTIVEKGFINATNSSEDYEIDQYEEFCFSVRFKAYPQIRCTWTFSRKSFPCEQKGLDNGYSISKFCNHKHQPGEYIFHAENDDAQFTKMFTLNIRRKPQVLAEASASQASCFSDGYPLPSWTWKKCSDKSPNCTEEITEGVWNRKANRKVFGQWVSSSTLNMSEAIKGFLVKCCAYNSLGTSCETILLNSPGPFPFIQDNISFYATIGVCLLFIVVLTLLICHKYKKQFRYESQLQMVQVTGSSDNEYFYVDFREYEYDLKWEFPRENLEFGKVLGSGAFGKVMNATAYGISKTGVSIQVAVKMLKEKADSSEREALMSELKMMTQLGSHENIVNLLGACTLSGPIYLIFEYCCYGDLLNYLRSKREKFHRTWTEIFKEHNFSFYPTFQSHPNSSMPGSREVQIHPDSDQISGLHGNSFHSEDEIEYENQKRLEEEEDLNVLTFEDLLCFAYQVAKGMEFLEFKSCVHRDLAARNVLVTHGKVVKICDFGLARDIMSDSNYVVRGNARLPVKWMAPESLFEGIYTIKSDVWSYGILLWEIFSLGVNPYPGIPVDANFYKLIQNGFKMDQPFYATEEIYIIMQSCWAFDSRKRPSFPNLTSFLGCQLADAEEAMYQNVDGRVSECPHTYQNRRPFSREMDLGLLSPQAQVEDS
Summary of the method: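 Kinase activity of recombinant FLT3-ITD, FLT3-D835Y and c-KIT was followed via phosphotyrosine formation on a 30 nM biotin-peptide substrate, captured on streptavidin donor and anti-phosphotyrosine acceptor AlphaScreen beads. ATP was set at 10 μM for FLT3 and 100 μM for c-KIT.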

SMILES | IC50 [1] | IC50 (FLT3-ITD)
O=C(Cc1ccc(-c2cnc(Nc3cnn(C4CC4)c3)nc2)cc1F)Nc1ccc(C(F)(F)F)nc1 [Compound P-0242, 2-[4-[2-[(1-cyclopropylpyrazol-4-yl)amino]pyrimidin-5-yl]-2-fluoro-phenyl]-N-[6-(trifluoromethyl)-3-pyridyl]acetamide] | 0.0001 to 10 µM | 0.0001 to 10 µM
O=C(Cc1ccc(-c2cnc(Nc3cnn(C4CC4)c3)nc2)cc1F)Nc1ccc(C(F)(F)F)cn1 [Compound P-0243, 2-[4-[2-[(1-cyclopropylpyrazol-4-yl)amino]pyrimidin-5-yl]-2-fluoro-phenyl]-N-[5-(trifluoromethyl)-2-pyridyl]acetamide] | 0.0001 to 10 µM | 0.0001 to 10 µM
O=C(Cc1ccc(-c2cnc(Nc3cnn(C4CC4)c3)nc2)cc1F)Nc1cc(C(F)(F)F)ccn1 [Compound P-0244, 2-[4-[2-[(1-cyclopropylpyrazol-4-yl)amino]pyrimidin-5-yl]-2-fluoro-phenyl]-N-[4-(trifluoromethyl)-2-pyridyl]acetamide] | 0.0001 to 10 µM | 0.0001 to 10 µM
CCn1cc(Nc2ncc(-c3ccc(CC(=O)Nc4cc(C(F)(F)F)ccn4)cc3)cn2)cn1 [Compound P-0250, 2-[4-[2-[(1-ethylpyrazol-4-yl)amino]pyrimidin-5-yl]phenyl]-N-[4-(trifluoromethyl)-2-pyridyl]acetamide] | 0.0001 to 10 µM | 0.0001 to 10 µM
CCn1cc(Nc2ncc(-c3ccc(CC(=O)Nc4ccc(C(F)(F)F)cn4)cc3)cn2)cn1 [Compound P-0251, 2-[4-[2-[(1-ethylpyrazol-4-yl)amino]pyrimidin-5-yl]phenyl]-N-[5-(trifluoromethyl)-2-pyridyl]acetamide] | 0.0001 to 10 µM | 0.0001 to 10 µM
CCn1cc(Nc2ncc(-c3ccc(CC(=O)Nc4ccc(C(F)(F)F)nc4)cc3)cn2)cn1 [Compound P-0252, 2-[4-[2-[(1-ethylpyrazol-4-yl)amino]pyrimidin-5-yl]phenyl]-N-[6-(trifluoromethyl)-3-pyridyl]acetamide] | 0.0001 to 10 µM | 0.0001 to 10 µM
CCn1cc(Nc2ncc(-c3ccc(CC(=O)Nc4cnc(OC)c(C(F)(F)F)c4)cc3)cn2)cn1 [Compound P-0253, 2-[4-[2-[(1-ethylpyrazol-4-yl)amino]pyrimidin-5-yl]phenyl]-N-[6-methoxy-5-(trifluoromethyl)-3-pyridyl]acetamide] | 0.0001 to 10 µM | 0.0001 to 10 µM
CCn1cc(Nc2ncc(-c3ccc(CC(=O)Nc4cnc(C)c(C(F)(F)F)c4)cc3)cn2)cn1 [Compound P-0254, 2-[4-[2-[(1-ethylpyrazol-4-yl)amino]pyrimidin-5-yl]phenyl]-N-[6-methyl-5-(trifluoromethyl)-3-pyridyl]acetamide] | 0.0001 to 10 µM | 0.0001 to 10 µM
CCn1cc(Nc2ncc(-c3ccc(CC(=O)Nc4cc(C(F)(F)F)ccn4)c(F)c3)cn2)cn1 [Compound P-0255, 2-[4-[2-[(1-ethylpyrazol-4-yl)amino]pyrimidin-5-yl]-2-fluoro-phenyl]-N-[4-(trifluoromethyl)-2-pyridyl]acetamide] | 0.0001 to 10 µM | 0.0001 to 10 µM
CCn1cc(Nc2ncc(-c3ccc(CC(=O)Nc4ccc(C(F)(F)F)cn4)c(F)c3)cn2)cn1 [Compound P-0256, 2-[4-[2-[(1-ethylpyrazol-4-yl)amino]pyrimidin-5-yl]-2-fluoro-phenyl]-N-[5-(trifluoromethyl)-2-pyridyl]acetamide] | 0.0001 to 10 µM | 0.0001 to 10 µM
CCn1cc(Nc2ncc(-c3ccc(CC(=O)Nc4ccc(C(F)(F)F)nc4)c(F)c3)cn2)cn1 [Compound P-0257, 2-[4-[2-[(1-ethylpyrazol-4-yl)amino]pyrimidin-5-yl]-2-fluoro-phenyl]-N-[6-(trifluoromethyl)-3-pyridyl]acetamide] | 0.0001 to 10 µM | 0.0001 to 10 µM
CCn1cc(Nc2ncc(-c3ccc(CC(=O)Nc4cncc(C(F)(F)F)c4)c(F)c3)cn2)cn1 [Compound P-0258, 2-[4-[2-[(1-ethylpyrazol-4-yl)amino]pyrimidin-5-yl]-2-fluoro-phenyl]-N-[5-(trifluoromethyl)-3-pyridyl]acetamide] | 0.0001 to 10 µM | 0.0001 to 10 µM
CCn1cc(Nc2ncc(-c3ccc(CC(=O)Nc4cnc(OC)c(C(F)(F)F)c4)c(F)c3)cn2)cn1 [Compound P-0259, 2-[4-[2-[(1-ethylpyrazol-4-yl)amino]pyrimidin-5-yl]-2-fluoro-phenyl]-N-[6-methoxy-5-(trifluoromethyl)-3-pyridyl]acetamide] | 0.0001 to 10 µM | 0.0001 to 10 µM
CCn1cc(Nc2ncc(-c3ccc(CC(=O)Nc4cnc(Cl)c(C(F)(F)F)c4)c(F)c3)cn2)cn1 [Compound P-0260, N-[6-chloro-5-(trifluoromethyl)-3-pyridyl]-2-[4-[2-[(1-ethylpyrazol-4-yl)amino]pyrimidin-5-yl]-2-fluoro-phenyl]acetamide] | 0.0001 to 10 µM | 0.0001 to 10 µM
CCn1cc(Nc2ncc(-c3ccc(CC(=O)Nc4cnc(C)c(C(F)(F)F)c4)c(F)c3)cn2)cn1 [Compound P-0261, 2-[4-[2-[(1-ethylpyrazol-4-yl)amino]pyrimidin-5-yl]-2-fluoro-phenyl]-N-[6-methyl-5-(trifluoromethyl)-3-pyridyl]acetamide] | 0.0001 to 10 µM | 0.0001 to 10 µM

Next, values leading:

IC50 [1] | IC50 (FLT3-ITD) | SMILES
0.0001 to 10 µM | 0.0001 to 10 µM | COCCn1cc(Nc2ncc(-c3ccc(CC(=O)Nc4cnc(OC)c(C(F)(F)F)c4)c(F)c3)cn2)cn1 [Compound P-0265, 2-[2-fluoro-4-[2-[[1-(2-methoxyethyl)pyrazol-4-yl]amino]pyrimidin-5-yl]phenyl]-N-[6-methoxy-5-(trifluoromethyl)-3-pyridyl]acetamide]
0.0001 to 10 µM | 0.0001 to 10 µM | COCCn1cc(Nc2ncc(-c3ccc(CC(=O)Nc4cnc(Cl)c(C(F)(F)F)c4)c(F)c3)cn2)cn1 [Compound P-0266, N-[6-chloro-5-(trifluoromethyl)-3-pyridyl]-2-[2-fluoro-4-[2-[[1-(2-methoxyethyl)pyrazol-4-yl]amino]pyrimidin-5-yl]phenyl]acetamide]
0.0001 to 10 µM | 0.0001 to 10 µM | COCCn1cc(Nc2ncc(-c3ccc(CC(=O)Nc4cncc(C(F)(F)F)c4)c(F)c3)cn2)cn1 [Compound P-0267, 2-[2-fluoro-4-[2-[[1-(2-methoxyethyl)pyrazol-4-yl]amino]pyrimidin-5-yl]phenyl]-N-[5-(trifluoromethyl)-3-pyridyl]acetamide]
0.0001 to 10 µM | 0.0001 to 10 µM | COCCn1cc(Nc2ncc(-c3ccc(CC(=O)Nc4ccc(C(F)(F)F)nc4)c(F)c3)cn2)cn1 [Compound P-0268, 2-[2-fluoro-4-[2-[[1-(2-methoxyethyl)pyrazol-4-yl]amino]pyrimidin-5-yl]phenyl]-N-[6-(trifluoromethyl)-3-pyridyl]acetamide]
0.0001 to 10 µM | 0.0001 to 10 µM | COCCn1cc(Nc2ncc(-c3ccc(CC(=O)Nc4ccc(C(F)(F)F)cn4)c(F)c3)cn2)cn1 [Compound P-0269, 2-[2-fluoro-4-[2-[[1-(2-methoxyethyl)pyrazol-4-yl]amino]pyrimidin-5-yl]phenyl]-N-[5-(trifluoromethyl)-2-pyridyl]acetamide]
0.0001 to 10 µM | 0.0001 to 10 µM | COCCn1cc(Nc2ncc(-c3ccc(CC(=O)Nc4cc(C(F)(F)F)ccn4)c(F)c3)cn2)cn1 [Compound P-0270, 2-[2-fluoro-4-[2-[[1-(2-methoxyethyl)pyrazol-4-yl]amino]pyrimidin-5-yl]phenyl]-N-[4-(trifluoromethyl)-2-pyridyl]acetamide]
0.0001 to 10 µM | 0.0001 to 10 µM | COCCn1cc(Nc2ncc(-c3ccc(CC(=O)Nc4cnc(OC)c(C(F)(F)F)c4)cc3)cn2)cn1 [Compound P-0271, 2-[4-[2-[[1-(2-methoxyethyl)pyrazol-4-yl]amino]pyrimidin-5-yl]phenyl]-N-[6-methoxy-5-(trifluoromethyl)-3-pyridyl]acetamide]
0.0001 to 10 µM | 0.0001 to 10 µM | COCCn1cc(Nc2ncc(-c3ccc(CC(=O)Nc4ccc(C(F)(F)F)nc4)cc3)cn2)cn1 [Compound P-0273, 2-[4-[2-[[1-(2-methoxyethyl)pyrazol-4-yl]amino]pyrimidin-5-yl]phenyl]-N-[6-(trifluoromethyl)-3-pyridyl]acetamide]
